Broadly, the melting point is the temperature, or range, at which the solid turns liquid. As usually defined, the IC50 is the concentration needed to halve the response being measured. Low values mean greater potency in that assay, high ones weaker potency in that assay.

Where a name gives a salt, the structure may show the parent alone. Read-outs that look alike come from different tables or passages of the source.

Data set [1] deals with Tel22 (DNA, G4) AGGGTTAGGGTTAGGGTTAGGG
In words: circular dichroism titration. Conditions: 10 mM K+, 90 mM Li+; 10 mM Li-cacodylate pH 7.3, 25 °C; 4 μM DNA, DNA/ligand 1:1 to 1:5.

In data set [2] the test system is F21T (DNA, G4) GGGTTAGGGTTAGGGTTAGGG
The data set is described as follows: FRET melting (renaturing curve). The conditions noted are these: 10 mM K+, 90 mM Li+; 10 mM Li-cacodylate pH 7.3; 0.2 μM DNA; 10 μM compound.

In data set [3] the test system is F10T (DNA, hairpin, Sp18 (hexaethylene glycol type spacer) between 10 and 11) TATAGCTATATAGCTATA
In words: FRET melting (renaturing curve). Conditions: 100 mM LiCl; 10 mM Li-cacodylate; 0.2 μM DNA; 10 μM compound.

Data set [4] has as its system Tel22 (DNA, G4) AGGGTTAGGGTTAGGGTTAGGG
The data set is described as follows: equilibrium dialysis (non-competition). The conditions noted are these: 100 mM KCl; 10 mM potassium phosphate pH 7.2, 22 °C; 2 μM ligand, 75 μM tetrads; apparent; per tetrad; per base. Background: Equilibrium dialysis compares concentrations on both sides of a semipermeable membrane.

Data set [5] concerns ds17 (DNA, duplex) GGGTTACTACGAACTGG/CCAGTTCGTAGTAACCC
In words: equilibrium dialysis (non-competition). The conditions noted are these: 100 mM KCl, 10 mM potassium phosphate pH 7.2, 22 °C, 2 μM ligand, 75 μM base pairs, apparent, per base pair.

For data set [6], the system named is PC-3 cells (prostate tumor). The data set is described as follows: MTT viability assay PC-3. The conditions noted are these: MTT, 72 h. It is filed as cell-based, human. How it is done: (§1) A panel of five tumor cell lines and two normal cell lines was used to preliminarily test the cytotoxicity of compounds 1–4, and the experiments were conducted as previously reported. All human cell lines were acquired from American Type Culture Collection (ATCC): tumor PC-3 and DU145 (prostate), HeLa (cervix), MCF7 (breast) and HT29 (colorectal) and healthy HFF-1 (fibroblast) and RWPE-1 (prostate). The cell catalogue reference and culture media used in the experiments were CRL-1435^TM, RPMI (PC-3), HTB-81™, RPMI (DU145), CCL-2^TM, DMEM (HeLa), HTB-22^TM, DMEM (MCF-7), HTB-38^TM, modified McCoy’s 5a medium, Catalogue No. 30-2007 (HT29), SCRC-1041^TM, DMEM (HFF-1) and CRL-11609^TM, Keratinocyte-SFM (RWPE-1). Culture media were purchased from Merck: RPMI-1640, DMEM + 10% FBS (Fetal Bovine Serum) + […] (penicillin/streptomycin/amphotericin B). Media and supplements for RWPE-1 were from ThermoFisher (17005075, Madrid, Spain). MCF7 cells were additionally supplemented with insulin (0.001 mg/mL in 500 mL media). Cells were kept at 37 °C (5% CO2), and culture media were renewed three times per week. When the cells reached 80–100% confluence, they were trypsinized and centrifuged, and the concentration was adjusted to each experiment. Cells were seeded at a density of ~10,000 cells/well into 24-well plates. The cells were treated with ligands 1–4 or the cytotoxic agents PhenQE8, PhenDC3 or cisplatin at different concentrations (10 nM–100 μM). Compound solutions were freshly prepared using the appropriate culture medium. Triplicate experiments were run. For MTT viability assays, after 72 h incubation, 50 μL of MTT (5 mg/mL) was added, and an additional incubation of 4 h was allowed. The medium in each well was then replaced by DMSO, and the absorbance was measured at 570 nm using an ELISA plate reader. Absorbances were normalized using negative controls (untreated cells, in triplicate, with a maximum of 0.9% DMSO content). Dose–response curves were obtained by plotting the percentage of viable cells versus logarithmic compound concentration. IC50 values were determined using Kaleidagragh^TM (3.52) software by adjusting the data to Equation 1/(1 + 10^(m2*(log(m1) − x))); m1 = 0.000003; m2 = 1.
On the technique in general: Formazan colour is commonly taken as a measure of viable cells.

Data set [7] has as its system DU145 cells (prostate tumor). In words: MTT viability assay DU145. It is filed as cell-based, human. How it is done: as §1
Data set [8] relates to HeLa cells (cervix). The data set is described as follows: MTT viability assay HeLa. It is filed as cell-based, human. The conditions noted are these: 72 h. As for the experimental part: as §1
For data set [9], the system named is MCF-7 cells (breast). The data set is described as follows: MTT viability assay MCF-7. The format is cell-based, human. As for the experimental part: as §1
The test system of data set [10] is HFF-1 cells (healthy fibroblasts). In words: MTT viability assay HFF-1. It is filed as cell-based, human. As for the experimental part:
as §1

The subject of data set [11] is RWPE-1 cells (healthy prostate). The data set is described as follows: MTT viability assay RWPE-1. The format is cell-based, human. As for the experimental part:
as §1

The subject of data set [12] is G4 Tel22 telomeric quadruplex DNA. More on the design: method as in PMID 33451070. The conditions noted are these: previously reported ref 29; cited from earlier work.
Data set [13] has as its system Calf thymus CT DNA. Conditions: cited from earlier work.
In data set [14] the test system is HT29 cells (colorectal). In words: MTT viability assay HT29. It is filed as cell-based, human. As for the experimental part: as §1, with “Dose–response curves were obtained by plotting the percentage of viable cells versus logarithmic compound concentration.” left out
For data set [15], the system named is telomeric G4 sequence F21T. In words: FRET-based DNA melting assay, telomeric G4 F21T. It is filed as binding, human. Conditions: 10 μM compound, 0.2 μM F21T, renaturing process, K+ buffer. How it is done: FRET DNA melting assays were conducted following standard reported procedures. Briefly, the employed oligonucleotides F21T (5′-FAM—(GGG TTA)3GGG—TAMRA-3′) and F10T (5′-FAM—TAT AGC TA TA/Sp18/TA GCT ATA—TAMRA-3′) were dissolved in buffer at 0.25 μM concentration and annealed by heating at 90 °C for 5 min, and then immediately cooling to 0 °C, in the case of F21T, or slowly to rt (F10T) during a period of 3 hours. The solutions were allowed to stand at 4 °C at least overnight.
Tested compounds 1–4 were dissolved in water with up to a maximum 10% DMSO (50 μM stock solution). Each stock solution was then gradually diluted to reach the final concentrations in the assay from 0 to 10 μM and a fixed 0.2 μM concentration of target sequences F21T or F10T. The buffer used for G4 sequence F21T was 10 mM KCl, 90 mM LiCl and 10 mM Li-cacodylate, pH 7.3. The buffer employed for F10T was 100 mM LiCl and 10 mM Li-cacodylate.
The melting process program consisted of an incubation step at 24 °C for 5 min and then a temperature ramp (1 °C/min rate) with fluorescence recordings at every degree up to 95 °C. Subsequently, the microplate with the samples (50 μL) was incubated for 5 min at 96 °C and then gradually cooled by using a temperature ramp of −1 °C/min, with fluorescence measurements at every degree down to 25 °C. The melting and refolding (or renaturing) curves were registered based on the change in emission of the FAM (6-carboxyfluorescein) fluorophore, excited at 492 nm and emitting at 516 nm. Melting temperature values (Tm) were determined from replicate experiments using normalized curves and considering mid-transition T1/2 temperatures.

In data set [16] the test system is PC-3, DU145, HeLa, MCF-7, HT29, HFF-1 and RWPE-1 cells. In words: MTT viability assay, whole cell panel. The conditions noted are these: 72 h, up to 100 μM. The format is cell-based, human. How it is done:
A panel of five tumor cell lines and two normal cell lines was used to preliminarily test the cytotoxicity of compounds 1–4, and the experiments were conducted as previously reported. All human cell lines were acquired from American Type Culture Collection (ATCC): tumor PC-3 and DU145 (prostate), HeLa (cervix), MCF7 (breast) and HT29 (colorectal) and healthy HFF-1 (fibroblast) and RWPE-1 (prostate). The cell catalogue reference and culture media used in the experiments were CRL-1435^TM, RPMI (PC-3), HTB-81™, RPMI (DU145), CCL-2^TM, DMEM (HeLa), HTB-22^TM, DMEM (MCF-7), HTB-38^TM, modified McCoy’s 5a medium, Catalogue No. 30-2007 (HT29), SCRC-1041^TM, DMEM (HFF-1) and CRL-11609^TM, Keratinocyte-SFM (RWPE-1). Culture media were purchased from Merck: RPMI-1640, DMEM + 10% FBS (Fetal Bovine Serum) + […] (penicillin/streptomycin/amphotericin B). Media and supplements for RWPE-1 were from ThermoFisher (17005075, Madrid, Spain). […] The medium in each well was then replaced by DMSO, and the absorbance was measured at 570 nm using an ELISA plate reader. Absorbances were normalized using negative controls (untreated cells, in triplicate, with a maximum of 0.9% DMSO content). […] IC50 values were determined using Kaleidagragh^TM (3.52) software by adjusting the data to Equation 1/(1 + 10^(m2*(log(m1) − x))); m1 = 0.000003; m2 = 1.

For `NC(=S)N/N=C/c1ccc2ccc3ccc(/C=N/NC(N)=S)nc3c2n1` (as salt: phosphate) [compound 2, 2,2′-(1,10-Phenanthroline-2,9-diyl)-bis(methylene)-bis(hydrazine-1-carbothioamide) Hexafluorophosphate Salt], the melting point is > 240 °C (dec.).

`NC(=S)N/N=C/c1ccc2ccc3ccc(/C=N/NC(N)=S)nc3c2n1` [1]: the binding entry in data set [1] is listed as “yes”. Moreover, the ΔTm in [2] is ~ 12 °C; in [3], ~ 0 °C. Besides, the results for the Kapp in data set [4] and in data set [5] were 1.1 ± 0.1 × 10^5 M^-1 and 0.06 ± 0.01 × 10^5 M^-1, respectively.

Take `NC(=S)N/N=C/c1ccc2ccc3ccc(/C=N/NC(N)=S)nc3c2n1` [2]: in [2], the ΔTm was ~ 15 °C.

Consider `NC(=S)N/N=C/c1ccc2ccc3ccc(/C=N/NC(N)=S)nc3c2n1` [3], for which the ΔTm in data set [2] is ~ 10 °C.

On to `C[n+]1cc(NC(=O)c2ccc3ccc4ccc(C(=O)Nc5cc6ccccc6[n+](C)c5)nc4c3n2)cc2ccccc21` [PhenDC3], for which the IC50 was 55.5 ± 3.1 µM in data set [6] (Homo sapiens, PC-3, 72 h); 7.3 ± 1 µM in [7] (Homo sapiens, DU-145, 72 h); over 100 µM in data set [8] (Homo sapiens, HeLa); 2.4 ± 0.8 µM in [9] (Homo sapiens, MCF7, 72 h); 32.2 ± 4.2 µM in data set [10] (Homo sapiens, HFF-1, 72 h); 8.2 ± 1.1 µM in [11] (Homo sapiens, RWPE-1, 72 h).

`N=C(N)N/N=C/c1ccc2ccc3ccc(/C=N/NC(=N)N)nc3c2n1` [PhenQE8]: the IC50 in data set [6] (Homo sapiens, PC-3, 72 h) came out at 5.6 ± 0.3 µM; in data set [7] (Homo sapiens, DU-145, 72 h), 22.7 ± 1.1 µM; in data set [8] (Homo sapiens, HeLa) it was 16.2 ± 1.6 µM; in [9] (Homo sapiens, MCF7, 72 h), 44.9 ± 9.2 µM; in [10] (Homo sapiens, HFF-1, 72 h), 170 ± 23.3 µM; in data set [11] (Homo sapiens, RWPE-1, 72 h), 38.8 ± 0.5 µM. For the same compound, in data set [12], the “binding selectivity quadruplex/dsDNA” value is 90 fold. The “viscosity slope, (η/ηo)^1/3 versus r” value in [13] (determined in previous studies ref 29) is “ca. 0.24”.

For `N.N.[Cl][Pt][Cl]` [cisplatin], the IC50 in data set [6] turned out to be 12.8 ± 0.9 µM; in [7] (72 h), 8.4 ± 1.5 µM; in data set [8], 18 ± 1.9 µM; in data set [9] (72 h), 96.5 ± 6.7 µM; in data set [14] (72 h), 86.6 ± 7 µM; in [10] (72 h), 36.6 ± 4.4 µM. The compound further yielded an IC50 in [11] (72 h) of 16.4 ± 1.4 µM.

In the case of `C(=N\Nc1nc(-c2ccccc2)cs1)/c1ccc2ccc3ccc(/C=N/Nc4nc(-c5ccccc5)cs4)nc3c2n1` [compound 4, 2,9-bis((E)-(2-(4-Phenylthiazol-2-yl)hydrazineylidene)methyl)-1,10-phenanthroline], the melting point is > 250 °C (dec.). Besides, the “ΔTm of telomeric G4 F21T” value in [15] was ~ 3 °C. In data set [6] (Homo sapiens, PC-3, 72 h), this compound registered an IC50 of over 100 µM. In data set [7] (Homo sapiens, DU-145, 72 h), the IC50 is over 100 µM. For the same compound, the IC50 in data set [8] (Homo sapiens, HeLa) is over 100 µM. Also, the concentration for half-maximal inhibition (IC50) in data set [9] (Homo sapiens, MCF7, 72 h) is over 100 µM. In data set [14] (Homo sapiens, HT-29, 72 h), the IC50 was over 100 µM. This compound showed an IC50 in [10] (Homo sapiens, HFF-1, 72 h) of over 100 µM. The IC50 in data set [11] (Homo sapiens, RWPE-1, 72 h) is over 100 µM. In data set [16], the “cytotoxicity in all cell lines tested” value was “non-cytotoxic”. The ΔTm in [2] is ~ 3 °C. The ΔTm in [3] is ~ 0 °C.

For the compound `CC[n+]1c(-c2ccccc2)c2cc(N)ccc2c2ccc(N)cc21` [ethidium bromide], the “viscosity slope, (η/ηo)^1/3 versus r” value in [13] (classical monointercalating agent ref 50, 51) was ~ 1.0.

These data come from paper PMC10813753 (Biology, 2024).
